Source: PubChem BioAssay (NCI)
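Cultured in 96-well plates, cells were exposed to test compound for 48 hours across five concentrations. Here, GI50 denotes the concentration required for 50% inhibition of growth. TGI: concentration producing complete growth inhibition.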

Legend:
Test in all cases: DTP human tumour cell line panel, 48 h
786-0 renal = system: 786-0 renal
A498 renal = system: A498 renal
A549 NSCLC = system: A549 NSCLC
ACHN renal = system: ACHN renal
BT-549 breast = system: BT-549 breast
CAKI-1 renal = system: CAKI-1 renal
CCRF-CEM leukemia = system: CCRF-CEM leukemia
COLO 205 colon = system: COLO 205 colon
DU-145 prostate = system: DU-145 prostate
HCC-2998 colon = system: HCC-2998 colon
HCT-116 colon = system: HCT-116 colon
HCT-15 colon = system: HCT-15 colon
HL-60(TB) leukemia = system: HL-60(TB) leukemia
HOP-62 NSCLC = system: HOP-62 NSCLC
HOP-92 NSCLC = system: HOP-92 NSCLC
HS 578T breast = system: HS 578T breast
HT29 colon = system: HT29 colon
IGROV1 ovarian = system: IGROV1 ovarian
K-562 leukemia = system: K-562 leukemia
KM12 colon = system: KM12 colon
LOX IMVI melanoma = system: LOX IMVI melanoma
M14 melanoma = system: M14 melanoma
MALME-3M melanoma = system: MALME-3M melanoma
MCF7 breast = system: MCF7 breast
MDA-MB-231 breast = system: MDA-MB-231 breast
MDA-MB-435 = system: MDA-MB-435
MOLT-4 leukemia = system: MOLT-4 leukemia
NCI-H226 lung = system: NCI-H226 lung
NCI-H23 lung = system: NCI-H23 lung
NCI-H460 lung = system: NCI-H460 lung
NCI-H522 lung = system: NCI-H522 lung
NCI/ADR-RES ovarian = system: NCI/ADR-RES ovarian
OVCAR-3 ovarian = system: OVCAR-3 ovarian
OVCAR-4 ovarian = system: OVCAR-4 ovarian
OVCAR-5 ovarian = system: OVCAR-5 ovarian
OVCAR-8 ovarian = system: OVCAR-8 ovarian
PC-3 prostate = system: PC-3 prostate
RPMI-8226 leukemia = system: RPMI-8226 leukemia
RXF 393 renal = system: RXF 393 renal
SF-268 CNS = system: SF-268 CNS
SF-295 CNS = system: SF-295 CNS
SF-539 CNS = system: SF-539 CNS
SK-MEL-2 melanoma = system: SK-MEL-2 melanoma
SK-MEL-28 melanoma = system: SK-MEL-28 melanoma
SK-MEL-5 melanoma = system: SK-MEL-5 melanoma
SK-OV-3 ovarian = system: SK-OV-3 ovarian
SN12C renal = system: SN12C renal
SNB-19 CNS = system: SNB-19 CNS
SNB-75 CNS = system: SNB-75 CNS
SR leukemia = system: SR leukemia
SW-620 colon = system: SW-620 colon
TK-10 renal = system: TK-10 renal
U251 CNS = system: U251 CNS
UACC-257 melanoma = system: UACC-257 melanoma
UACC-62 melanoma = system: UACC-62 melanoma
UO-31 renal = system: UO-31 renal

O=C(C[P+](c1ccccc1)(c1ccccc1)c1ccccc1)C[P+](c1ccccc1)(c1ccccc1)c1ccccc1
GI50 (786-0 renal): 496 nM | TGI (786-0 renal): 1160 nM | GI50 (A498 renal): 223 nM | TGI (A498 renal): 1020 nM | GI50 (A549 NSCLC): 810 nM | TGI (A549 NSCLC): 3040 nM | GI50 (ACHN renal): 144 nM | TGI (ACHN renal): 393 nM | GI50 (BT-549 breast): 363 nM | TGI (BT-549 breast): 1240 nM | GI50 (CAKI-1 renal): 161 nM | TGI (CAKI-1 renal): 357 nM | GI50 (CCRF-CEM leukemia): 229 nM | TGI (CCRF-CEM leukemia): 1050 nM | GI50 (COLO 205 colon): 398 nM | TGI (COLO 205 colon): 1510 nM | GI50 (DU-145 prostate): 327 nM | TGI (DU-145 prostate): 1300 nM | GI50 (HCC-2998 colon): 784 nM | TGI (HCC-2998 colon): 2170 nM | GI50 (HCT-116 colon): 203 nM | TGI (HCT-116 colon): 547 nM | GI50 (HCT-15 colon): 241 nM | TGI (HCT-15 colon): 1600 nM | GI50 (HL-60(TB) leukemia): 256 nM | TGI (HL-60(TB) leukemia): 2570 nM | GI50 (HOP-62 NSCLC): 1460 nM | TGI (HOP-62 NSCLC): 2840 nM | GI50 (HOP-92 NSCLC): 69.6 nM | TGI (HOP-92 NSCLC): 294 nM | GI50 (HS 578T breast): 581 nM | TGI (HS 578T breast): 4500 nM | GI50 (HT29 colon): 285 nM | TGI (HT29 colon): 734 nM | GI50 (IGROV1 ovarian): 774 nM | TGI (IGROV1 ovarian): 2560 nM | GI50 (K-562 leukemia): 306 nM | TGI (K-562 leukemia): 7490 nM | GI50 (KM12 colon): 1130 nM | TGI (KM12 colon): 2630 nM | GI50 (LOX IMVI melanoma): 235 nM | TGI (LOX IMVI melanoma): 637 nM | GI50 (M14 melanoma): 387 nM | TGI (M14 melanoma): 1460 nM | GI50 (MALME-3M melanoma): 335 nM | TGI (MALME-3M melanoma): 1480 nM | GI50 (MCF7 breast): 332 nM | TGI (MCF7 breast): 1600 nM | GI50 (MDA-MB-231 breast): 320 nM | TGI (MDA-MB-231 breast): 1400 nM | GI50 (MDA-MB-435): 233 nM | TGI (MDA-MB-435): 666 nM | GI50 (MOLT-4 leukemia): 292 nM | TGI (MOLT-4 leukemia): 4080 nM | GI50 (NCI-H226 lung): 197 nM | TGI (NCI-H226 lung): 612 nM | GI50 (NCI-H23 lung): 253 nM | TGI (NCI-H23 lung): 888 nM | GI50 (NCI-H460 lung): 546 nM | TGI (NCI-H460 lung): 2300 nM | GI50 (NCI-H522 lung): 141 nM | TGI (NCI-H522 lung): 325 nM | GI50 (NCI/ADR-RES ovarian): 383 nM | TGI (NCI/ADR-RES ovarian): 11000 nM | GI50 (OVCAR-3 ovarian): 296 nM | TGI (OVCAR-3 ovarian): 807 nM | GI50 (OVCAR-4 ovarian): 135 nM | TGI (OVCAR-4 ovarian): 269 nM | GI50 (OVCAR-5 ovarian): 263 nM | TGI (OVCAR-5 ovarian): 832 nM | GI50 (OVCAR-8 ovarian): 318 nM | TGI (OVCAR-8 ovarian): 2310 nM | GI50 (PC-3 prostate): 938 nM | TGI (PC-3 prostate): 2510 nM | GI50 (RPMI-8226 leukemia): 271 nM | TGI (RPMI-8226 leukemia): 1810 nM | GI50 (RXF 393 renal): 200 nM | TGI (RXF 393 renal): 605 nM | GI50 (SF-268 CNS): 591 nM | TGI (SF-268 CNS): 1950 nM | GI50 (SF-295 CNS): 1460 nM | TGI (SF-295 CNS): 2980 nM | GI50 (SF-539 CNS): 286 nM | TGI (SF-539 CNS): 1130 nM | GI50 (SK-MEL-2 melanoma): 341 nM | TGI (SK-MEL-2 melanoma): 1040 nM | GI50 (SK-MEL-28 melanoma): 332 nM | TGI (SK-MEL-28 melanoma): 1290 nM | GI50 (SK-MEL-5 melanoma): 625 nM | TGI (SK-MEL-5 melanoma): 1800 nM | GI50 (SK-OV-3 ovarian): 1490 nM | TGI (SK-OV-3 ovarian): 3170 nM | GI50 (SN12C renal): 682 nM | TGI (SN12C renal): 2140 nM | GI50 (SNB-19 CNS): 1310 nM | TGI (SNB-19 CNS): 2780 nM | GI50 (SNB-75 CNS): 254 nM | TGI (SNB-75 CNS): 1440 nM | GI50 (SR leukemia): 310 nM | TGI (SR leukemia): 3890 nM | GI50 (SW-620 colon): 242 nM | TGI (SW-620 colon): 816 nM | GI50 (TK-10 renal): 326 nM | TGI (TK-10 renal): 1090 nM | GI50 (U251 CNS): 828 nM | TGI (U251 CNS): 2230 nM | GI50 (UACC-257 melanoma): 416 nM | TGI (UACC-257 melanoma): 1280 nM | GI50 (UACC-62 melanoma): 256 nM | TGI (UACC-62 melanoma): 865 nM | GI50 (UO-31 renal): 218 nM | TGI (UO-31 renal): 855 nM
